# Test results published in US7807439B2, “Staphylococcus aureus-specific detection media and identifying and/or counting method using same” (Biomerieux S.A., priority 2001, dated 2010).
# Tested on: S. saprophyticus 064
# Experiment: Experiment 1: chromogenic α-glucosidase substrates in gelled medium, colony coloration
# Assay type: cell-based, Staphylococcus saprophyticus
# Set-up: key to I (intensity of coloration): 0 corresponds to a lack of activity; 0.1 corresponds to the presence of a trace of coloration; 0.5 corresponds to the presence of a very pale coloration; 1 corresponds to the presence of a clear coloration of weak intensity; 1.5 corresponds to the presence of a coloration which is intermediate between colorations 1 and 2; 2 corresponds to the presence of a true coloration of medium intensity; 2.5 corresponds to the presence of a coloration which is intermediate between colorations 2 and 3; 3 corresponds to the presence of an intense coloration; 3.5 corresponds to the presence of a coloration which is intermediate between colorations 3 and 4; 4 corresponds to the presence of a very intense coloration; key to C (coloration of the colonies): —: the symbol “−” is synonymous with a lack of colour or intensity
# Details: TI 24 h, substrate 100 mg/l
# Protocol: (§1) The α-glucosidase substrates are solubilized in dimethyl sulfoxide at a concentration of 200 g/l. A sufficient volume to obtain a final concentration of substrate of 100 mg/l is added to the four molten media. Microorganisms derived from the bioMérieux internal collection were seeded onto each one of the media, on their own as three dials, using a suspension at 0.5 MacFarland. However, results obtained with microorganisms derived from collections available to the public, ATCC or NCTC for example, would give identical results. The dishes were incubated at 37° C. for 48 hours. The colonies were examined visually after an incubation time of 24 and 48 hours. The coloration and also the intensity of this coloration were noted.
# (§2) In table 2 below, as in the tables which will follow, C represents the coloration of the colonies after incubation, I represents the intensity of this coloration, the symbol “−” is synonymous with a lack of colour or intensity, and, finally, TI defines the incubation time. It should be noted that the intensity of the coloration is an arbitrary scale, but which is common to all the biological samples and all the media tested. This scale is valid for this experiment and also for all the experiments which will follow. It can be defined in the following way: • 0 corresponds to a lack of activity, • 0.1 corresponds to the presence of a trace of coloration, • 0.5 corresponds to the presence of a very pale coloration, • 1 corresponds to the presence of a clear coloration of weak intensity, • 1.5 corresponds to the presence of a coloration which is intermediate between colorations 1 and 2, • 2 corresponds to the presence of a true coloration of medium intensity, • 2.5 corresponds to the presence of a coloration which is intermediate between colorations 2 and 3, • 3 corresponds to the presence of an intense coloration • 3.5 corresponds to the presence of a coloration which is intermediate between colorations 3 and 4, • 4 corresponds to the presence of a very intense coloration.
Substance,C (coloration of the colonies),I (intensity of coloration)
5-bromo-4-chloro-3-indoxyl-α-D-glucoside [X-a-GLU],—,0

# Same assay, conditions: TI 48 h, substrate 100 mg/l
Substance,C (coloration of the colonies),I (intensity of coloration)
5-bromo-4-chloro-3-indoxyl-α-D-glucoside [X-a-GLU],turquoise,0.5

# Tested on: S. epidermidis 009
# Experiment: as above
# Assay type: cell-based, Staphylococcus epidermidis
# Set-up: key to I (intensity of coloration): 0 corresponds to a lack of activity; 0.1 corresponds to the presence of a trace of coloration; 0.5 corresponds to the presence of a very pale coloration; 1 corresponds to the presence of a clear coloration of weak intensity; 1.5 corresponds to the presence of a coloration which is intermediate between colorations 1 and 2; 2 corresponds to the presence of a true coloration of medium intensity; 2.5 corresponds to the presence of a coloration which is intermediate between colorations 2 and 3; 3 corresponds to the presence of an intense coloration; 3.5 corresponds to the presence of a coloration which is intermediate between colorations 3 and 4; 4 corresponds to the presence of a very intense coloration; key to C (coloration of the colonies): —: the symbol “−” is synonymous with a lack of colour or intensity
# Details: TI 24 h, substrate 100 mg/l
# Protocol: as §1, §2
Substance,C (coloration of the colonies),I (intensity of coloration)
5-bromo-4-chloro-3-indoxyl-α-D-glucoside [X-a-GLU],—,0

# Same assay, conditions: TI 48 h, substrate 100 mg/l
Substance,C (coloration of the colonies),I (intensity of coloration)
5-bromo-4-chloro-3-indoxyl-α-D-glucoside [X-a-GLU],turquoise,1

# Tested on: S. intermedius 075
# Experiment: as above
# Assay type: cell-based, Staphylococcus intermedius
# Set-up: key to I (intensity of coloration): 0 corresponds to a lack of activity; 0.1 corresponds to the presence of a trace of coloration; 0.5 corresponds to the presence of a very pale coloration; 1 corresponds to the presence of a clear coloration of weak intensity; 1.5 corresponds to the presence of a coloration which is intermediate between colorations 1 and 2; 2 corresponds to the presence of a true coloration of medium intensity; 2.5 corresponds to the presence of a coloration which is intermediate between colorations 2 and 3; 3 corresponds to the presence of an intense coloration; 3.5 corresponds to the presence of a coloration which is intermediate between colorations 3 and 4; 4 corresponds to the presence of a very intense coloration
# Details: TI 24 h, substrate 100 mg/l
# Protocol: as §1, §2
Substance,C (coloration of the colonies),I (intensity of coloration)
5-bromo-4-chloro-3-indoxyl-α-D-glucoside [X-a-GLU],turquoise,0.5

# Same assay, conditions: TI 48 h, substrate 100 mg/l
Substance,C (coloration of the colonies),I (intensity of coloration)
5-bromo-4-chloro-3-indoxyl-α-D-glucoside [X-a-GLU],turquoise,2

# Tested on: S. aureus 276
# Experiment: as above
# Assay type: cell-based, Staphylococcus aureus
# Set-up: key to I (intensity of coloration): 0 corresponds to a lack of activity; 0.1 corresponds to the presence of a trace of coloration; 0.5 corresponds to the presence of a very pale coloration; 1 corresponds to the presence of a clear coloration of weak intensity; 1.5 corresponds to the presence of a coloration which is intermediate between colorations 1 and 2; 2 corresponds to the presence of a true coloration of medium intensity; 2.5 corresponds to the presence of a coloration which is intermediate between colorations 2 and 3; 3 corresponds to the presence of an intense coloration; 3.5 corresponds to the presence of a coloration which is intermediate between colorations 3 and 4; 4 corresponds to the presence of a very intense coloration
# Details: TI 24 h, substrate 100 mg/l
# Protocol: as §1, §2
Substance,C (coloration of the colonies),I (intensity of coloration)
5-bromo-4-chloro-3-indoxyl-α-D-glucoside [X-a-GLU],turquoise,2

# Same assay, conditions: TI 48 h, substrate 100 mg/l
Substance,C (coloration of the colonies),I (intensity of coloration)
5-bromo-4-chloro-3-indoxyl-α-D-glucoside [X-a-GLU],turquoise,2

# Tested on: S. aureus 004
# Experiment: as above
# Assay type: cell-based, Staphylococcus aureus
# Set-up: key to I (intensity of coloration): 0 corresponds to a lack of activity; 0.1 corresponds to the presence of a trace of coloration; 0.5 corresponds to the presence of a very pale coloration; 1 corresponds to the presence of a clear coloration of weak intensity; 1.5 corresponds to the presence of a coloration which is intermediate between colorations 1 and 2; 2 corresponds to the presence of a true coloration of medium intensity; 2.5 corresponds to the presence of a coloration which is intermediate between colorations 2 and 3; 3 corresponds to the presence of an intense coloration; 3.5 corresponds to the presence of a coloration which is intermediate between colorations 3 and 4; 4 corresponds to the presence of a very intense coloration
# Details: TI 24 h, substrate 100 mg/l
# Protocol: as §1, §2
Substance,C (coloration of the colonies),I (intensity of coloration)
5-bromo-4-chloro-3-indoxyl-α-D-glucoside [X-a-GLU],turquoise,1

# Same assay, conditions: TI 48 h, substrate 100 mg/l
Substance,C (coloration of the colonies),I (intensity of coloration)
5-bromo-4-chloro-3-indoxyl-α-D-glucoside [X-a-GLU],turquoise,2

# Tested on: S. aureus 070
# Experiment: as above
# Assay type: cell-based, Staphylococcus aureus
# Set-up: key to I (intensity of coloration): 0 corresponds to a lack of activity; 0.1 corresponds to the presence of a trace of coloration; 0.5 corresponds to the presence of a very pale coloration; 1 corresponds to the presence of a clear coloration of weak intensity; 1.5 corresponds to the presence of a coloration which is intermediate between colorations 1 and 2; 2 corresponds to the presence of a true coloration of medium intensity; 2.5 corresponds to the presence of a coloration which is intermediate between colorations 2 and 3; 3 corresponds to the presence of an intense coloration; 3.5 corresponds to the presence of a coloration which is intermediate between colorations 3 and 4; 4 corresponds to the presence of a very intense coloration
# Details: TI 24 h, substrate 100 mg/l
# Protocol: as §1, §2
Substance,C (coloration of the colonies),I (intensity of coloration)
5-bromo-4-chloro-3-indoxyl-α-D-glucoside [X-a-GLU],turquoise,1.5

# Same assay, conditions: TI 48 h, substrate 100 mg/l
Substance,C (coloration of the colonies),I (intensity of coloration)
5-bromo-4-chloro-3-indoxyl-α-D-glucoside [X-a-GLU],turquoise,1.5

# Tested on: S. xylosus 008
# Experiment: as above
# Assay type: cell-based, Staphylococcus xylosus
# Set-up: key to I (intensity of coloration): 0 corresponds to a lack of activity; 0.1 corresponds to the presence of a trace of coloration; 0.5 corresponds to the presence of a very pale coloration; 1 corresponds to the presence of a clear coloration of weak intensity; 1.5 corresponds to the presence of a coloration which is intermediate between colorations 1 and 2; 2 corresponds to the presence of a true coloration of medium intensity; 2.5 corresponds to the presence of a coloration which is intermediate between colorations 2 and 3; 3 corresponds to the presence of an intense coloration; 3.5 corresponds to the presence of a coloration which is intermediate between colorations 3 and 4; 4 corresponds to the presence of a very intense coloration
# Details: TI 24 h, substrate 100 mg/l
# Protocol: as §1, §2
Substance,C (coloration of the colonies),I (intensity of coloration)
5-bromo-4-chloro-3-indoxyl-α-D-glucoside [X-a-GLU],turquoise,0.5

# Same assay, conditions: TI 48 h, substrate 100 mg/l
Substance,C (coloration of the colonies),I (intensity of coloration)
5-bromo-4-chloro-3-indoxyl-α-D-glucoside [X-a-GLU],turquoise,1.5
